Our source for the inhibition values is paper PMC6934184, “Selective DNA-PKcs inhibition extends the therapeutic index of localized radiotherapy and chemotherapy” (The Journal of Clinical Investigation, 2019).

The target in the assay is T1, ALK (Homo sapiens, UniProt Q9UM73).
T1 construct: purchased Thermo Fisher Scientific (Life Technologies) SelectScreen
Nature of the assay: SelectScreen Z'LYTE. Format: biochemical. A digest of the protocol: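 NU5455 was profiled across the SelectScreen Broad panel of kinase activity and binding assays. Z'LYTE reactions such as CSF1R ran at apparent Km ATP, while the Adapta CAMK1 assay used ATP listed as 10. Values are given as percent.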

The structures appear in SMILES notation.

T1 sequence (Q9UM73 19-1620): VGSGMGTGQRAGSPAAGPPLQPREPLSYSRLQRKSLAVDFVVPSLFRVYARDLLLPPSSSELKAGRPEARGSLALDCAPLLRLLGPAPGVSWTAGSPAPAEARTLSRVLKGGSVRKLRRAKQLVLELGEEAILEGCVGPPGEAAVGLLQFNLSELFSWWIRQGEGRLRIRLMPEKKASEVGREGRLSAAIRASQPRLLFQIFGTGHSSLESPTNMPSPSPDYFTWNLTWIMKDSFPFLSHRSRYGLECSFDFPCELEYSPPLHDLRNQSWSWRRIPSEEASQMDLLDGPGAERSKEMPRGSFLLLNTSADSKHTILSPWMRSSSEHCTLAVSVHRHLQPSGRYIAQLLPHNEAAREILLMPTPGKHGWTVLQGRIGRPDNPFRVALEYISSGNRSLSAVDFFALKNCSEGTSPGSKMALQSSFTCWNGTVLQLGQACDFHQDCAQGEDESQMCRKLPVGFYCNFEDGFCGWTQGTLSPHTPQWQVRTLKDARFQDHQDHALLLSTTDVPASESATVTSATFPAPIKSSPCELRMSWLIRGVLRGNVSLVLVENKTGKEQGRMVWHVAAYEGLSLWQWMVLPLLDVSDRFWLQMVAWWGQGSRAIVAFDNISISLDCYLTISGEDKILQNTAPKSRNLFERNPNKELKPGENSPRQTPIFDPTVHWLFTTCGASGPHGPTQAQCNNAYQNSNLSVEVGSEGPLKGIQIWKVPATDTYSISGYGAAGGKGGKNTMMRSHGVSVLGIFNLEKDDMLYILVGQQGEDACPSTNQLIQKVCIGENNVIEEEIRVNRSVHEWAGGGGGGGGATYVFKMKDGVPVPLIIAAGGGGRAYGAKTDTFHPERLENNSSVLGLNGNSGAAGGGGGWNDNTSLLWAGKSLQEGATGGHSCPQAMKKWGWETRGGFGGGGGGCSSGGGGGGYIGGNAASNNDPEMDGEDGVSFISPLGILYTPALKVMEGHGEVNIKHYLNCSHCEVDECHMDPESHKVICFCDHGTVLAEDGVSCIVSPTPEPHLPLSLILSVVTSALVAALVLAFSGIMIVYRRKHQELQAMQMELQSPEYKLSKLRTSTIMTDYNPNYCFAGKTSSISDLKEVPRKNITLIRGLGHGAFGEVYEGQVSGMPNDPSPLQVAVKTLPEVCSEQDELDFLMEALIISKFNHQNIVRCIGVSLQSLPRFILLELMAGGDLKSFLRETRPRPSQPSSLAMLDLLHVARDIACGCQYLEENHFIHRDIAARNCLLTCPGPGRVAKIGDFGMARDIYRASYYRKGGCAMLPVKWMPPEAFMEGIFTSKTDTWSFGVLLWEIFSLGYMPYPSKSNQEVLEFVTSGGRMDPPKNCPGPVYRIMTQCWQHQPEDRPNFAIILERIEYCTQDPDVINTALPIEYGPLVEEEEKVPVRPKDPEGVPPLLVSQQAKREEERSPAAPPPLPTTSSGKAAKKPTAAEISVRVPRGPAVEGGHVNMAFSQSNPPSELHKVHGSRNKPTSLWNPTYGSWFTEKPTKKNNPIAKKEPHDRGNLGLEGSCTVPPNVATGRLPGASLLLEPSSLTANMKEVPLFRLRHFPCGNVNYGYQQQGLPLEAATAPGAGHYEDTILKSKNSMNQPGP

For the compound `CN(C(=O)CN1CCOCC1)c1ccc2sc3c(-c4cccc5c(=O)cc(N6CC7CCC(C6)O7)oc45)cccc3c2c1` [NU5455], the inhibition (commonly how much of the control response was suppressed) at 1 µM was determined as 17.3%.
